The target of experiment [1] is 5-hydroxytryptamine receptor 2A (Rattus norvegicus, UniProt P14842). The experiment in a line: Inhibition of [3H]ketanserin binding to 5-hydroxytryptamine 2A receptor rat frontal cortex membrane. Format: tissue-based.
A further experiment concerns the target D(1A) dopamine receptor (Rattus norvegicus, UniProt P18901). As to the kind of experiment: Inhibition of [3H]-SCH- 23390 binding to dopamine receptor D1 rat striatal membrane.
The species entered for another experiment is Rattus norvegicus. The experiment in a line: Value was obtained against serotonin-induced (5-HT2A) contractions in rat aorta rings. As to conditions: read-out: pA2 (converted).
The next experiment has as its target D(2) dopamine receptor (Rattus norvegicus, UniProt P61169). The experiment in a line: Inhibition of [3H]-spiperone […] binding to dopamine receptor D2 rat striatal membrane.

Sequence of D(1A) dopamine receptor (P18901 whole entry): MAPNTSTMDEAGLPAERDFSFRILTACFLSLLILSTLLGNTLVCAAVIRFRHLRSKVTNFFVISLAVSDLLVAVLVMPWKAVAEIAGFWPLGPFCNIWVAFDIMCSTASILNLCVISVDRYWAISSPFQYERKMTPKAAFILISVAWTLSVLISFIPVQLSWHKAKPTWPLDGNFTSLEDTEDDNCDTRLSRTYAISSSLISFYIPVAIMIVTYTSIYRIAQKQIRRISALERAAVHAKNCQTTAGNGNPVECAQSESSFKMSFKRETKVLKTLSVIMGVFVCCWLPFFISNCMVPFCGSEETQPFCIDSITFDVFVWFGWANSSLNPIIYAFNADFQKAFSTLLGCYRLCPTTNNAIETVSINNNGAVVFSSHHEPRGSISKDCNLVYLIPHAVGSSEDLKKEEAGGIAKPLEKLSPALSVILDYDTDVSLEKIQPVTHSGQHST
Sequence of 5-hydroxytryptamine receptor 2A (P14842 whole entry): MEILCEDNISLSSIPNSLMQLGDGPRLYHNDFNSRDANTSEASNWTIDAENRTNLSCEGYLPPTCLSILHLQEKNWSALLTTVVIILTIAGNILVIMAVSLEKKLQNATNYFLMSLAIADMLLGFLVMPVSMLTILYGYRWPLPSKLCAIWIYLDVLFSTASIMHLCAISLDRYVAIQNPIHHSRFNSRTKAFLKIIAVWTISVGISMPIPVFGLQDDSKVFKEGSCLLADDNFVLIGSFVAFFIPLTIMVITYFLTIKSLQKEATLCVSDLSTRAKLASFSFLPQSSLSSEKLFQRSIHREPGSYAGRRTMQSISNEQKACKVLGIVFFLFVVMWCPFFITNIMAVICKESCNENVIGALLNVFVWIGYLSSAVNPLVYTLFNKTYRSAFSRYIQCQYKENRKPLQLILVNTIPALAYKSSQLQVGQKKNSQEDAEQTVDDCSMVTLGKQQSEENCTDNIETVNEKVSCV
Sequence of D(2) dopamine receptor (P61169 whole entry): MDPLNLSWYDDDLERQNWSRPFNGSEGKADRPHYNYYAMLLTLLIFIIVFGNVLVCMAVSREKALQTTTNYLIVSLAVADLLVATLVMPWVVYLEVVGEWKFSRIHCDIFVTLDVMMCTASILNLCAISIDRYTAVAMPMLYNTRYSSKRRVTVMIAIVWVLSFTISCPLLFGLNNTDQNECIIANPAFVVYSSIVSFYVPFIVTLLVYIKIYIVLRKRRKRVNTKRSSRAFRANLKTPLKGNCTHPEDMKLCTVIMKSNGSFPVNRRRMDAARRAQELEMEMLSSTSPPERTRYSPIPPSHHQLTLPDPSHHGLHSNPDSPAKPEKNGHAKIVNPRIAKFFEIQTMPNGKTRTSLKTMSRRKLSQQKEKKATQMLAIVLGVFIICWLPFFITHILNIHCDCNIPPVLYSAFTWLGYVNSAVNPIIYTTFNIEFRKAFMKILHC

For the compound `O=C(c1ccc(F)cc1)C1CCN(CCC2CCCc3ccccc3C2=O)CC1` (stereo not drawn), the Ki (in general, a measure of affinity in units of concentration, obtained from inhibition or displacement) was 12.9 nM in experiment [1] and 1290 nM at D(1A) dopamine receptor. The Kb in the experiment filed under Rattus norvegicus was 178 nM.

On to `O=C(c1ccc(F)cc1)C1CCN(CCC2Cc3cc(F)ccc3C2=O)CC1` (stereo not drawn), for which the values for the inhibition constant Ki (in experiment [1]; at D(2) dopamine receptor; on D(1A) dopamine receptor) were 3.8 nM, 47.9 nM and 1100 nM, respectively. Also, the Kb in the experiment listed under Rattus norvegicus was 7.59 nM.

As for `O=C(c1ccc(F)cc1)C1CCN(CCC2Cc3ccccc3C2=O)CC1` (stereo not drawn), the inhibitory constant (Ki) was 2.51 nM in experiment [1] and 2820 nM at D(1A) dopamine receptor. Moreover, the Kb in the experiment filed under Rattus norvegicus is 7.59 nM.

Regarding `O=C(c1ccc(F)cc1)C1CCN(CCC2CCc3ccccc3C2=O)CC1` (stereo not drawn), the Ki in experiment [1] is 7.76 nM; at D(1A) dopamine receptor it was 1550 nM. Besides, in the experiment filed under Rattus norvegicus, the Kb was 35.5 nM.

For the origin of these results see ChEMBL document CHEMBL1127610, “Synthesis and atypical antipsychotic profile of some 2-(2-piperidinoethyl)benzocycloalkanones as analogues of butyrophenone” (J Med Chem, 1994).
